The values that follow are results of earlier work, collected in paper PMC9751290, “Design, synthesis, in vitro, in silico, and SAR studies of flavone analogs towards anti-dengue activity” (Scientific Reports, 2022).

This data set concerns dengue and Zika virus. As to conditions: cited from earlier work.

`CCCCCCCCCCCCOc1c(Br)c(O)c2c(=O)cc(-c3ccccc3)oc2c1Br` [IV]: the EC50 (commonly the concentration needed to bring the measured effect to its halfway point) was 4.17 µM.
